Assay results as given in ChEMBL document CHEMBL5532720, “A Potent Solution for Tumor Growth and Angiogenesis Suppression via an ELR+CXCL-CXCR1/2 Pathway Inhibitor” (ACS Med Chem Lett, 2024).
Activity calls are given as the source filed them. The calls are words filed in the database; no cut-off is given here.

What was measured:
[1] = AUC (0 to infinity) in NOD SCID mouse at 1 mg/kg, iv; format: ADME, organism-based; conditions: in vivo
[2] = biological target: Serine/threonine-protein kinase tousled-like 2 (Homo sapiens) (UniProt Q86UE8); assay: Inhibition of TLK2 (unknown origin) at 10 uM in presence of ATP at Km concentration
[3] = biological target: Mitogen-activated protein kinase kinase kinase kinase 3 (Homo sapiens) (UniProt Q8IVH8); assay: Inhibition of MAP4K3 (unknown origin) at 10 uM in presence of ATP at Km concentration
[4] = Protein binding in mouse plasma; format: ADME, cell-free; conditions: read-out: PPB (converted)
[5] = Genotoxicity in Salmonella typhimurium TA1535 upto 100 uM in absence of S9 fraction by Ames test; format: toxicity; conditions: salmonella enterica subsp. enterica serovar typhimurium, s9, 100 µM
[6] = biological target: Mitogen-activated protein kinase 9 (Homo sapiens) (UniProt P45984); assay: Inhibition of MAPK9 (unknown origin) at 10 uM in presence of ATP at Km concentration
Mitogen-activated protein kinase 9 (Homo sapiens), sequence (P45984 whole entry, looked up): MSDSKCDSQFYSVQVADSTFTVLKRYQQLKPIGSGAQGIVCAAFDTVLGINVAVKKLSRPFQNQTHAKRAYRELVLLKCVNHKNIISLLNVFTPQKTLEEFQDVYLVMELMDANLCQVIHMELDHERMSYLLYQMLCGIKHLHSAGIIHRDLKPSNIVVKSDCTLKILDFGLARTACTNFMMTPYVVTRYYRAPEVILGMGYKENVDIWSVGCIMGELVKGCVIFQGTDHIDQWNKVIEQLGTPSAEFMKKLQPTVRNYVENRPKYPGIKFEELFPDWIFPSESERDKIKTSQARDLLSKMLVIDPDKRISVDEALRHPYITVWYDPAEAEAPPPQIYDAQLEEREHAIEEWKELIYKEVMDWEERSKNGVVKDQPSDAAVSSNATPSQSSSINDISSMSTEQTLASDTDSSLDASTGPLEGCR

[7] = Stability of compound at pH 2 measured after 24 hrs; format: physicochemical; conditions: buffer, pH 2, 24 h
[8] = biological target: [Pyruvate dehydrogenase (acetyl-transferring)] kinase isozyme 1, mitochondrial (Homo sapiens) (UniProt Q15118); assay: Inhibition of PDK1 (unknown origin) at 10 uM in presence of ATP at Km concentration
[9] = Stability in human microsomes assessed as intrinsic clearance; format: ADME, Microsome
[10] = Stability in mouse microsomes assessed as compound remaining measured after 1 hrs; format: ADME, Microsome; conditions: read-out: Stability
[11] = biological target: Casein kinase I isoform gamma-3 (Homo sapiens) (UniProt Q9Y6M4); assay: Inhibition of CSNK1G3 (unknown origin) at 10 uM in presence of ATP at Km concentration
[12] = Protein binding in human plasma; format: ADME, cell-free; conditions: read-out: PPB (converted)
[13] = Lipophilicity, logD of compound at pH 7.4; format: physicochemical; conditions: buffer
[14] = biological target: Interleukin-8 receptors, CXCR1/CXCR2 (Homo sapiens) (UniProt P25025+P25024); assay: Inhibition of CXCR1/2 pathway in human A498 cells assessed as reduction in ERK phosphorylation at 2.5 uM incubated for 24 to 48 hrs by immunoblot analysis; format: functional, cell-based; conditions: time 24-48 hrs
[15] = biological target: Hepatocyte growth factor receptor (Homo sapiens) (UniProt P08581); assay: Inhibition of MET (unknown origin) at 10 uM in presence of ATP at Km concentration
Hepatocyte growth factor receptor (Homo sapiens), sequence (P08581 whole entry): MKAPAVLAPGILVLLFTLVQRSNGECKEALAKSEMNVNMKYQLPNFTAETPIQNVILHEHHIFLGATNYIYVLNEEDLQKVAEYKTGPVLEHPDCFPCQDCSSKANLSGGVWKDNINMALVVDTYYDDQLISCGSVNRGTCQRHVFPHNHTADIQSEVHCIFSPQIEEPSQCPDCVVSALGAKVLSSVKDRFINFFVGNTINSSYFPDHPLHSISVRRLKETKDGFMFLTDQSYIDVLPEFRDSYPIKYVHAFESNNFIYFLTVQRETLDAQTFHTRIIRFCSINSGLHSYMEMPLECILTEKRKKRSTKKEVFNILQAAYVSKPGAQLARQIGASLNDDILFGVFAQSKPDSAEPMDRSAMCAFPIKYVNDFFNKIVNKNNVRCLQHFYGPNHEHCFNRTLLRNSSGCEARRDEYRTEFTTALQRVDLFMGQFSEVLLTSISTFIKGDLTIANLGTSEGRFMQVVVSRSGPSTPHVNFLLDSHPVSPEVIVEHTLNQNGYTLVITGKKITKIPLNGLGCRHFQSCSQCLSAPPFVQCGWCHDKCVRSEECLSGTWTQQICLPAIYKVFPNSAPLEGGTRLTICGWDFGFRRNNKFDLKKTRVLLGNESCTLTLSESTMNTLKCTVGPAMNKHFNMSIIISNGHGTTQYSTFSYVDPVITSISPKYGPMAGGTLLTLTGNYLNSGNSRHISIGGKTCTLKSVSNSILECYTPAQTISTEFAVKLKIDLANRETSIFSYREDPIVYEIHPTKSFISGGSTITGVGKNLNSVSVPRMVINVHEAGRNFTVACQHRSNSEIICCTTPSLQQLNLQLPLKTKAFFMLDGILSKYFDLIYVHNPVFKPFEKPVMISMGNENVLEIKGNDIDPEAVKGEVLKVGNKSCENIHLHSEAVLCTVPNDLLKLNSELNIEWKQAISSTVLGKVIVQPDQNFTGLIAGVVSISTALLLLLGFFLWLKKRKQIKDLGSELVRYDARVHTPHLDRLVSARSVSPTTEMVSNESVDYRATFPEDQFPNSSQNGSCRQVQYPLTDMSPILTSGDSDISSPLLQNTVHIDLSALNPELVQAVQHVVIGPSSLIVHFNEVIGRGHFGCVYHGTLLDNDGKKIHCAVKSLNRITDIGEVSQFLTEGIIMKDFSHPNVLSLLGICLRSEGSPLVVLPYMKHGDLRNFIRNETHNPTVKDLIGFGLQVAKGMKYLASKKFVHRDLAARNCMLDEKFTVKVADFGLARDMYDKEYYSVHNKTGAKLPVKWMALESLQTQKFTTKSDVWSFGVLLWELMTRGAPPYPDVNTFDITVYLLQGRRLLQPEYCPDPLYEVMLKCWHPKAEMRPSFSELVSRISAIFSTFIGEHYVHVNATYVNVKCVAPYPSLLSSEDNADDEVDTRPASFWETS

[16] = biological target: CDK8/Cyclin C (Homo sapiens) (UniProt P49336+P24863); assay: Inhibition of CDK8/cyclin C (unknown origin) at 10 uM in presence of ATP at Km concentration; format: protein-complex assay
[17] = test system: A498; assay: Antiproliferative activity against human A498 cells incubated for 48 hrs by XTT assay; format: functional, cell-based; conditions: A498, 48 h
[18] = Genotoxicity in Salmonella typhimurium TA1535 upto 100 uM in presence of S9 fraction by Ames test; format: toxicity, subcellular; conditions: salmonella enterica subsp. enterica serovar typhimurium, s9, 100 µM
[19] = biological target: Ephrin type-A receptor 5 (Homo sapiens) (UniProt P54756); assay: Inhibition of EPHA5 (unknown origin) at 10 uM in presence of ATP at Km concentration
[20] = biological target: Tyrosine-protein kinase Yes (Homo sapiens) (UniProt P07947); assay: Inhibition of YES1 (unknown origin) at 10 uM in presence of ATP at Km concentration
[21] = Volume of distribution in NOD SCID mouse at 1 mg/kg, iv; format: ADME, organism-based; conditions: in vivo
[22] = biological target: Misshapen-like kinase 1 (Homo sapiens) (UniProt Q8N4C8); assay: Inhibition of MINK1 (unknown origin) at 10 uM in presence of ATP at Km concentration
[23] = biological target: Insulin receptor (Homo sapiens) (UniProt P06213); assay: Inhibition of INSR (unknown origin) at 10 uM in presence of ATP at Km concentration
Insulin receptor (Homo sapiens), sequence (P06213 28-758 limits assumed): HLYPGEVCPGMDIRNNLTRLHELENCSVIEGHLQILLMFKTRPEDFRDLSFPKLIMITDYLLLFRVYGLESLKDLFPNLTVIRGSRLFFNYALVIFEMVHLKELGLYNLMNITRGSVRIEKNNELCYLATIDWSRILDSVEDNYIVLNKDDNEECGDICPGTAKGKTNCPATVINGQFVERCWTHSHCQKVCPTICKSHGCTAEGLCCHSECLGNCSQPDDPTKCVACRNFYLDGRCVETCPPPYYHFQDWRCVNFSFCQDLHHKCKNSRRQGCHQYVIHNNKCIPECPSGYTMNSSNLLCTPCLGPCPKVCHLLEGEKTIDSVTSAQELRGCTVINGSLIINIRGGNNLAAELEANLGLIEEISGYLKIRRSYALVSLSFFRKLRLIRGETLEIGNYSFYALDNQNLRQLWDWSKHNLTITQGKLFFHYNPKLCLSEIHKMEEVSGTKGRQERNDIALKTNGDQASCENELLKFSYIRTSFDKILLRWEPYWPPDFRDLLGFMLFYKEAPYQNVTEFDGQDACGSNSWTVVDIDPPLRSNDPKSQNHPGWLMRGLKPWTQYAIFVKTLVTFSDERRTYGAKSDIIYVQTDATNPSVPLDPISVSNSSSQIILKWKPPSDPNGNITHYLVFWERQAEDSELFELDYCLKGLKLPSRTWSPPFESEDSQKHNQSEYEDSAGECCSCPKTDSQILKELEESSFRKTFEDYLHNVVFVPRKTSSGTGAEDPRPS
Insulin receptor (Homo sapiens), sequence (P06213 763-1382 limits assumed): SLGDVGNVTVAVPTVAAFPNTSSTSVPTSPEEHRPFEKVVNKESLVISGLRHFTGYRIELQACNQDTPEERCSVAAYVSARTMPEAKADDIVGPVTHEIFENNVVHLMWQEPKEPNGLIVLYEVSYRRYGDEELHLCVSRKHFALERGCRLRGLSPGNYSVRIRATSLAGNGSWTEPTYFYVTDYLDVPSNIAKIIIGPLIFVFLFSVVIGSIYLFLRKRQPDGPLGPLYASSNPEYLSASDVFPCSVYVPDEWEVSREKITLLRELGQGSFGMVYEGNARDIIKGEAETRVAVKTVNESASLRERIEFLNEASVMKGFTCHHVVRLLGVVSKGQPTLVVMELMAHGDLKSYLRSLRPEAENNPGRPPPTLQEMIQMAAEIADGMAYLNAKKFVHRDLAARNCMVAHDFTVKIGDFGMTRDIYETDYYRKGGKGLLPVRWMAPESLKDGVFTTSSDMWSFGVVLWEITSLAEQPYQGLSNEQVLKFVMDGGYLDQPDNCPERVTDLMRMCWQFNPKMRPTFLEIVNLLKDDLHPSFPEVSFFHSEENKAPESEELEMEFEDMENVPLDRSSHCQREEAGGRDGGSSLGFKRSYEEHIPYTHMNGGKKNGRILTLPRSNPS

[24] = biological target: Ribosomal protein S6 kinase alpha-4 (Homo sapiens) (UniProt O75676); assay: Inhibition of RPS6KA4 (unknown origin) at 10 uM in presence of ATP at Km concentration
[25] = Half-life in NOD SCID mouse at 1 mg/kg, iv; format: ADME, organism-based; conditions: in vivo
[26] = Genotoxicity in Salmonella typhimurium TA100 upto 100 uM in presence of S9 fraction by Ames test; format: toxicity, subcellular; conditions: salmonella enterica subsp. enterica serovar typhimurium, s9, 100 µM
[27] = AUC (0 to infinity) in NOD SCID mouse at 200 mg/kg, po; format: ADME, organism-based; conditions: in vivo
[28] = Tmax in NOD SCID mouse at 50 mg/kg, po; format: ADME, organism-based; conditions: in vivo
[29] = test system: A498; assay: Inhibition of CXCL8 secretion in human A498 cells at 1 to 2.5 uM incubated for 48 hrs by ELISA; format: functional, cell-based; conditions: dose 1-2.5 µM
[30] = test system: A498; assay: Inhibition of CXCL5 secretion in human A498 cells at 1 to 2.5 uM incubated for 48 hrs by ELISA; format: functional, cell-based; conditions: dose 1-2.5 µM
[31] = biological target: CDK7/Cyclin H/MNAT1 (Homo sapiens) (UniProt P51946+P50613+P51948); assay: Inhibition of CDK7/cyclin H/MNAT1 (unknown origin) at 10 uM in presence of ATP at Km concentration; format: protein-complex assay
[32] = biological target: Tyrosine-protein kinase JAK1 (Homo sapiens) (UniProt P23458); assay: Inhibition of JAK1 (unknown origin) at 10 uM in presence of ATP at Km concentration
Tyrosine-protein kinase JAK1 (Homo sapiens), sequence (P23458 whole entry): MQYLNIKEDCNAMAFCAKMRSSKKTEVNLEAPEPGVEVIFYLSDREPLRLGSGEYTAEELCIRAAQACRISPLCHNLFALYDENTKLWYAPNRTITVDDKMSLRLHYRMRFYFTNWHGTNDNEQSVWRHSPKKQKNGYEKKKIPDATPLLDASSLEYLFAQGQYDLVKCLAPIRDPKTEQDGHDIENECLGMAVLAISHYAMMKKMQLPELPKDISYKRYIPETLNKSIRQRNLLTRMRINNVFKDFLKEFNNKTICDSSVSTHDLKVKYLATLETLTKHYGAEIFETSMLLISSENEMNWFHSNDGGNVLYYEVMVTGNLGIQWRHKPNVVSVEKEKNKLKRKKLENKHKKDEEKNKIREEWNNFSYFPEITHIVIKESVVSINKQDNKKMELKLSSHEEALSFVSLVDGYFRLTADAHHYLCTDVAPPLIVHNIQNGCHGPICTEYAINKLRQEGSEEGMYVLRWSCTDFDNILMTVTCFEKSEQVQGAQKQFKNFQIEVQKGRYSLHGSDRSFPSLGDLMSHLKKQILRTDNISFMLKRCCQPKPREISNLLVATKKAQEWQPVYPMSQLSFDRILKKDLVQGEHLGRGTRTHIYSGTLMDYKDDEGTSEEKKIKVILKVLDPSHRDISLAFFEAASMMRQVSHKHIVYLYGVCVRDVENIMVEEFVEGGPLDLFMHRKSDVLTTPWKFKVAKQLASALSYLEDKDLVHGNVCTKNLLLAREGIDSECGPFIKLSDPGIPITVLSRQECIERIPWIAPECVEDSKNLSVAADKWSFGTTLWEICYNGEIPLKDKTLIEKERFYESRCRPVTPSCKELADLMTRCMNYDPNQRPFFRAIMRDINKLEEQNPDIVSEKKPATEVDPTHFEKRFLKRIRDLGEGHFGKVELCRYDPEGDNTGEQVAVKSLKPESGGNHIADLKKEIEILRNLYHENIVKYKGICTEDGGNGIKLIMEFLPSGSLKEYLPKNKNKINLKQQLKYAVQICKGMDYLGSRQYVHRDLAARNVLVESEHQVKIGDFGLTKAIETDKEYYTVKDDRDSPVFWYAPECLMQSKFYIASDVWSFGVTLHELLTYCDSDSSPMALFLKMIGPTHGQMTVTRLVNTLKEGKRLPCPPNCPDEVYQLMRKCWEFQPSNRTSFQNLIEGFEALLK

[33] = biological target: Protein kinase C eta type (Homo sapiens) (UniProt P24723); assay: Inhibition of PRKCH (unknown origin) at 10 uM in presence of ATP at Km concentration
Protein kinase C eta type (Homo sapiens), sequence (P24723 whole entry): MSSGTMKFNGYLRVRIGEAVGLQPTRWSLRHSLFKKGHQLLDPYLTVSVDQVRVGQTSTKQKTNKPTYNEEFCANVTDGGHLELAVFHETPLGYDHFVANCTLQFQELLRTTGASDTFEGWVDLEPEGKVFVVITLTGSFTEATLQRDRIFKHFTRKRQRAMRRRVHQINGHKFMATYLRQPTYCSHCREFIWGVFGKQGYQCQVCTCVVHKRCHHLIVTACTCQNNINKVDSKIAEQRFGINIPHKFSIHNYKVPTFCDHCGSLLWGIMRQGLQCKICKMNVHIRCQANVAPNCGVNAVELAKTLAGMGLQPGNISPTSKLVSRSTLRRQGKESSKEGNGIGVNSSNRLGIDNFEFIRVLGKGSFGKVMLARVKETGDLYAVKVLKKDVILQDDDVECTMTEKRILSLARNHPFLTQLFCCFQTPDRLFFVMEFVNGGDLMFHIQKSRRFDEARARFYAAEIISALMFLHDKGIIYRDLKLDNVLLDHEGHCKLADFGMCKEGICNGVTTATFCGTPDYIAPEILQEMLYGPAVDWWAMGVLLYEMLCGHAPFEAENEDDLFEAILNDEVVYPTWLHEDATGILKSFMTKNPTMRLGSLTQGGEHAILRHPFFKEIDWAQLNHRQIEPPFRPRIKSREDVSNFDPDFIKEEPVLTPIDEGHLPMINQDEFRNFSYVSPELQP

[34] = Genotoxicity in Salmonella typhimurium TA1537 upto 100 uM in absence of S9 fraction by Ames test; format: toxicity; conditions: salmonella enterica subsp. enterica serovar typhimurium, s9, 100 µM
[35] = test system: A498; assay: Downregulation of CXCL8 mRNA expression in human A498 cells at 1 to 2.5 uM incubated for 48 hrs by qPCR analysis; format: functional, cell-based; conditions: dose 1-2.5 µM
[36] = biological target: Mitogen-activated protein kinase kinase kinase 20 (Homo sapiens) (UniProt Q9NYL2); assay: Inhibition of ZAK (unknown origin) at 10 uM in presence of ATP at Km concentration
[37] = test system: A498; assay: Inhibition of CXCL1 secretion in human A498 cells at 1 to 2.5 uM incubated for 48 hrs by ELISA; format: functional, cell-based; conditions: dose 1-2.5 µM
[38] = biological target: Mitogen-activated protein kinase kinase kinase 3 (Homo sapiens) (UniProt Q99759); assay: Inhibition of MAP3K3 (unknown origin) at 10 uM in presence of ATP at Km concentration
[39] = Toxicity in athymic nude mouse xenografted with human 786-0 cells assessed as effect on food consumption at 100 mg/kg, po administered twice daily via gavage for 28 days; format: organism-based; conditions: in vivo, 672 h, time 28 day
[40] = test system: TIME; assay: Inhibition of CXCL8-dependent cell migration in human TIME cells at 0.5 uM incubated for 24 hrs by crystal violet staining based analysis; format: functional
[41] = Clearance in NOD SCID mouse at 1 mg/kg, iv; format: ADME, organism-based; conditions: in vivo
[42] = Stability of compound in DMSO measured after 24 hrs; format: physicochemical
[43] = Half-life in NOD SCID mouse at 100 mg/kg, po; format: ADME, organism-based; conditions: in vivo

SMILES: O=C(Nc1cc(Cl)cc(Cl)c1)Nc1nc2ccc([N+](=O)[O-])cc2s1
- AUC(0-inf) [1]: 433 ng·h/mL
- inhibition [2]: inactive
- inhibition [3]: inactive
- fraction unbound [4]: 0.004
- Activity [5]: Non-Toxic
- inhibition [6]: inactive
- Stability [7]: Stable
- inhibition [8]: inactive
- microsomal CLint [9]: < 116 µL/min/mg
- remaining at 1 h [10]: 76%
- inhibition [11]: inactive
- fraction unbound [12]: 0.004
- logD [13]: 2.86
- inhibition [14]: Active
- inhibition [15]: inactive
- inhibition [16]: inactive
- IC50 [17]: 2000 nM
- Activity [18]: Non-Toxic
- inhibition [19]: inactive
- inhibition [20]: inactive
- Vd [21]: 1 L/kg
- inhibition [22]: inactive
- inhibition [23]: inactive
- inhibition [24]: inactive
- half-life [25]: 0.4 h
- Activity [26]: Non-Toxic
- AUC(0-inf) [27]: 19300 ng·h/mL
- Tmax [28]: 1.5 h
- inhibition [29]: Active
- inhibition [30]: Active
- inhibition [31]: inactive
- inhibition [32]: inactive
- inhibition [33]: inactive
- Activity [34]: Non-Toxic
- Activity [35]: Active
- inhibition [36]: inactive
- inhibition [37]: Active
- inhibition [38]: inactive
- Activity [39]: Non-Toxic
- inhibition [40]: Active
- clearance [41]: 39.3 mL/min/kg
- Stability [42]: Stable
- half-life [43]: 2.2 h
